Common to all, as to format: cell-based
Data set [1] relates to TCC97-7 bladder cancer tumour cells carrying the Ser249Cys mutation of FGF receptor 3. Nature of the data set: Inhibition of serum-induced proliferation of TCC97-7 bladder cancer cells (count of Hoechst 33342-labelled nuclei after 3 days). To be noted: TCC97-7 cells in presence of serum; for inhibition at 0.01 µM / inhibition at 0.1 µM / inhibition at 1 µM / inhibition at 10 µM: 72 h. The method, then:
To do this, 2000 cells are seeded in the morning in 50 μl of complete medium (Ham-F/12, 1% FCS, 2 mM glutamine, non-essential amino acids, sodium pyruvate, 1% insulin/transferrin/selenium, hydrocortisone). In the evening, 50 μl of the various compounds are added at 0.02, 0.2, 2 or 20 μM after dilution in complete culture medium in order to obtain final concentrations of 0.01, 0.1, 1 and 10 μM. After 3 days, the cell proliferation is evaluated by measuring the number of nuclei at the bottom of each well corresponding to a number of cells. The nuclei are detected by means of labelling with Hoechst 33342 (Invitrogen, ref H3570). 100 μl of Hoechst 33342 diluted to 1/5000th in PBS are added to each well for 30 min at ambient temperature on non-fixed cells. The nuclei are detected by fluorescence at 350 nm at ×2 magnification with an Operetta (PerkinElmer) using the Acapella (PerkinElmer) imaging software and analysed using the Columbus (PerkinElmer) image analysis software. The percentage inhibition of the cell proliferation is calculated by considering the number of nuclei present in the wells in which the TCC97-7 cells are cultured in the absence of FGF-R antagonists to be 0% inhibition. 100% inhibition would correspond to a well no longer containing cells.

Data set [2] can be described thus: Cytotoxic effect: percentage of permeabilized (very fluorescent, Hoechst 33342) TCC97-7 cells. To be noted: human, read-out: Cytotoxicity (% of permeable cells). As to the method: (§1) In parallel to their antiproliferative capacity, the potential cytotoxic effect of the FGF-R antagonists is measured by means of quantifying the number of cells of which the membranes are permeabilized. The appearance of pores in the plasma membrane of the cells corresponds to a state of cell death which enables the Hoechst 33342 to penetrate more easily into the cell. This is reflected by a very strong increase in the amount of fluorescence detected in the nuclei. The percentage of cells in a state of cell death is calculated by the ratio between the number of very fluorescent nuclei to the total number of nuclei, multiplied by 100. The observations are carried out in the same way as the quantification of the nuclei for the cell proliferation.

In data set [3] the test system is TCC97-7 bladder cancer cells carrying the Ser249Cys mutation of FGF receptor 3. Nature of the data set: Reduction of intracellular ATP content of TCC97-7 cells (Cell Titer-Glo, 3 days, serum-supplemented medium). To be noted: TCC97-7 cells in presence of serum; for inhibition at 0.1 µM / inhibition at 1 µM / inhibition at 10 µM: 72 h, read-out: Inhibition of the amount of intracellular ATP (%). The method, then: Evaluation of the Capacity of the FGF-R Antagonists to Reduce the ATP Content of TCC97-7 Bladder Cancer Cells Carrying the Ser249Cys Mutation of FGF Receptor 3, Cultured in a Serum-Supplemented Medium
To do this, 3000 cells are seeded in 50 μl of complete medium (Ham-F/12, 1% FCS, […], non-essential amino acids, sodium pyruvate, 1% insulin/transferrin/selenium, hydrocortisone). 16 hours later, 50 μl of the various compounds are added at 0.2, 2, 20 and 60 μM after dilution in complete culture medium in order to obtain final concentrations of 0.1, 1, 10 and 30 μM. After 3 days, the ATP content of the cells is measured using the Cell Titer-Glo® Luminescent Cell Viability Assay kit (Promega, France) according to the supplier's recommendations. The percentage inhibition of the amount of intracellular ATP is calculated by considering the ATP content of the cells cultured in the absence of antagonist to be 0% inhibition. 100% inhibition would correspond to a well in which the ATP content is zero.
(ATP-based viability assays read luminescence as a measure of living cells.)

In data set [4] the test system is TCC97-7 bladder cancer tumour cells carrying the Ser249Cys mutation of FGF receptor 3. The data set is described as follows: Cytotoxic effect: percentage of permeabilized (very fluorescent, Hoechst 33342) TCC97-7 cells. To be noted: 3 days. As to the method: as §1

Results on 5 compounds are retold here after US9732078B2, “Therapeutic use of imidazopyridine derivatives” (SANOFI, priority 2012, dated 2017).

By inhibition is commonly meant the drop in the measured response relative to a control, in per cent. As to `Cn1c(=O)n(Cc2ccc(F)cc2)c(=O)c2cc(C(=O)c3nc(-c4cccnc4)c4ccccn34)ccc21` [compound 112, 3-(4-Fluorobenzyl)-1-methyl-6-[(1-pyridin-3-ylimidazo[1,5-a]pyridin-3-yl)carbonyl]quinazoline-2,4(1H, 3H)-dione], the inhibition at 0.01 µM in data set [1] (0.01 μM) stood at 8%. In data set [1] (0.1 μM), the inhibition at 0.1 µM is 18%. Also, in data set [1] (1 μM), the inhibition at 1 µM came out at 61%. Also, the inhibition at 10 µM in data set [1] (10 μM) was 84%. Moreover, in data set [2], the cytotoxicity at 3 days, 0.01 µM is 4%; the cytotoxicity at 3 days, 0.1 µM came to 4%; the cytotoxicity at 3 days, 1 µM amounted to 16%; the cytotoxicity at 3 days, 10 µM worked out at 11%. Further, the inhibition at 0.1 µM in data set [3] (0.1 μM) is -3%. In addition, the inhibition at 1 µM in data set [3] (1 μM) is 51%. Further, the inhibition at 10 µM in data set [3] (10 μM) came to 88%.

As to `CCCn1c(=O)[nH]c2ccc(C(=O)c3nc(-c4cccc(C(N)=O)c4)c4ccccn34)cc2c1=O` [compound 29, 3-{3[(2,4-Dioxo-3-propyl-1,2,3,4-tetrahydroquinazolin-6-yl)carbonyl]imidazo[1,5-a]pyridin-1-yl}benzamide], the inhibition at 0.01 µM in data set [1] (0.01 μM) was 6%. The inhibition at 0.1 µM in data set [1] (0.1 μM) is 9%; in data set [3] (0.1 μM), -4%. Moreover, the inhibition at 1 µM was 45% in data set [1] (1 μM) and 8% in data set [3] (1 μM). In addition, the inhibition at 10 µM in data set [1] (10 μM) came to 71%; in data set [3] (10 μM), 24%. Also, in data set [2], the cytotoxicity at 3 days, 0.01 µM turned out to be 3%. In addition, the cytotoxicity at 3 days, 0.1 µM in data set [2] is 3%. Further, in data set [2], the cytotoxicity at 3 days, 1 µM turned out to be 8%. For the same compound, the cytotoxicity at 3 days, 10 µM in data set [2] was 17%.

As to `CCCn1c(=O)n(CCCC(C)C)c(=O)c2cc(C(=O)c3nc(-c4cccc(C(=O)[O-])c4)c4ccccn34)ccc21.[Na+]` [compound 207], the “Inhibition of proliferation (%)” value in data set [1] (0.01 μM) is 2%; in data set [1] (0.1 μM), 7%; in data set [1] (1 μM) it was 45%; in data set [1] (10 μM) it was 82%. Moreover, the “Cytotoxicity (% of permeable cells)” value in data set [4] (0.01 μM) is reported as 5%; in data set [4] (0.1 μM), 4%; in data set [4] (1 μM), 5%; in data set [4] (10 μM) it was 23%. The “Inhibition of the amount of intracellular ATP (%)” value (shortened to “Inhibition of the amount … (%)”) is listed as 10% in data set [3] (0.1 μM), 23% in data set [3] (1 μM) and 62% in data set [3] (10 μM).

Regarding `Cc1ccc(Cn2c(=O)c3cc(C(=O)c4nc(-c5cccc(C(=O)[O-])c5)c5ccccn45)ccc3n(C)c2=O)s1.[Na+]` [compound 291], the “Inhibition of proliferation (%)” value in data set [1] (0.01 μM) amounted to 1%; in data set [1] (0.1 μM), 5%; in data set [1] (1 μM) it was 40%; in data set [1] (10 μM), 81%. The “Cytotoxicity (% of permeable cells)” value in data set [4] (0.01 μM) amounted to 2%; in data set [4] (0.1 μM), 2%; in data set [4] (1 μM) it was 2%; in data set [4] (10 μM), 4%. In addition, the “Inhibition of the amount … (%)” value amounted to 8% in data set [3] (0.1 μM), 27% in data set [3] (1 μM) and 71% in data set [3] (10 μM).

Regarding `CCCn1c(=O)n(Cc2ccc(C)s2)c(=O)c2cc(C(=O)c3nc(-c4cccc(C(=O)[O-])c4)c4ccccn34)ccc21.[Na+]` [compound 224], the “Inhibition of proliferation (%)” value in data set [1] (0.01 μM) is 3%; in data set [1] (0.1 μM), 0%; in data set [1] (1 μM) it was 27%; in data set [1] (10 μM), 82%. Further, the “Cytotoxicity (% of permeable cells)” value came out at 3% in data set [4] (0.01 μM), 3% in data set [4] (0.1 μM), 4% in data set [4] (1 μM) and 9% in data set [4] (10 μM). Besides, the “Inhibition of the amount … (%)” value is listed as −1% in data set [3] (0.1 μM), 20% in data set [3] (1 μM) and 83% in data set [3] (10 μM).
